Assay results as given in ChEMBL document CHEMBL1134427, “Synthesis and photophysical properties of new fluorinated benzo[c]xanthene dyes as intracellular pH indicators” (Bioorg Med Chem Lett, 2001).

Experiment: pKa value by using fluorescence emission spectra
Assay type: physicochemical

pKa	SMILES
7.2	CN(C)c1ccc2c(-c3cc(C(=O)O)ccc3C(=O)O)c3cc(F)c4cc(=O)ccc4c3oc2c1
6.4	CN(C)c1ccc2c(-c3cc(C(=O)O)ccc3C(=O)O)c3ccc4c(F)c(=O)ccc4c3oc2c1
7.5	CN(C)c1ccc2c(-c3cc(C(=O)O)ccc3C(=O)O)c3ccc4cc(=O)ccc4c3oc2c1
